PubChem BioAssay AID330 (DTP/NCI, 2004)
Values joined by “and” are separate entries in the source; they are usually repeats but may differ in a detail not shown here. Identical values can stand only once. Inconclusive results and toxic doses are left out.

System: P388 leukemia ip, CD2F1 mice, survival T/C
Assay: NCI In Vivo Anticancer Drug Screen. Data for tumor model P388 Leukemia (intraperitoneal) in CD2F1 (CDF1) mice
Details: endpoint: median survival time, higher = longer survival
Procedure, shortened: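 Mice carrying the transplanted tumor received test compound or vehicle. Survival was recorded in each group, and the value is the treated-group measurement divided by that of the vehicle-treated control group.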

[1] = dose: 100.0 mg/kg/injection, schedule: Q01DX001 (ip), vehicle: saline with Tween-80
[2] = dose: 200.0 mg/kg/injection, schedule: Q01DX001 (ip), vehicle: saline with Tween-80
[3] = dose: 400.0 mg/kg/injection, schedule: Q01DX001 (ip), vehicle: saline with Tween-80
[4] = dose: 100.0 mg/kg/injection, schedule: Q04DX003 (ip), vehicle: Klucel (hydroxypropylcellulose) (HPC)
[5] = dose: 200.0 mg/kg/injection, schedule: Q04DX003 (ip), vehicle: Klucel (hydroxypropylcellulose) (HPC)
[6] = dose: 400.0 mg/kg/injection, schedule: Q04DX003 (ip), vehicle: Klucel (hydroxypropylcellulose) (HPC)
[7] = dose: 50.0 mg/kg/injection, schedule: Q01DX009 (ip), vehicle: saline with Tween-80
[8] = dose: 100.0 mg/kg/injection, schedule: Q01DX009 (ip), vehicle: saline with Tween-80
[9] = dose: 200.0 mg/kg/injection, schedule: Q01DX009 (ip), vehicle: saline with Tween-80
[10] = dose: 50.0 mg/kg/injection, schedule: Q01DX005 (ip), vehicle: saline with Tween-80
[11] = dose: 100.0 mg/kg/injection, schedule: Q01DX005 (ip), vehicle: saline with Tween-80
[12] = dose: 200.0 mg/kg/injection, schedule: Q01DX005 (ip), vehicle: saline with Tween-80
[13] = dose: 50.0 mg/kg/injection, schedule: Q01DX005 (ip), vehicle: Klucel (hydroxypropylcellulose) (HPC)
[14] = dose: 100.0 mg/kg/injection, schedule: Q01DX005 (ip), vehicle: Klucel (hydroxypropylcellulose) (HPC)
[15] = dose: 200.0 mg/kg/injection, schedule: Q01DX005 (ip), vehicle: Klucel (hydroxypropylcellulose) (HPC)
[16] = dose: 50.0 mg/kg/injection, schedule: Q01DX009 (ip), vehicle: saline
[17] = dose: 100.0 mg/kg/injection, schedule: Q01DX009 (ip), vehicle: saline
[18] = dose: 200.0 mg/kg/injection, schedule: Q01DX009 (ip), vehicle: saline
[19] = dose: 50.0 mg/kg/injection, schedule: Q01DX009 (ip), vehicle: Klucel (hydroxypropylcellulose) (HPC)
[20] = dose: 100.0 mg/kg/injection, schedule: Q01DX009 (ip), vehicle: Klucel (hydroxypropylcellulose) (HPC)
[21] = dose: 200.0 mg/kg/injection, schedule: Q01DX009 (ip), vehicle: Klucel (hydroxypropylcellulose) (HPC)
[22] = dose: 60.0 mg/kg/injection, schedule: Q01DX005 (ip), vehicle: saline
[23] = dose: 120.0 mg/kg/injection, schedule: Q01DX005 (ip), vehicle: saline
[24] = dose: 240.0 mg/kg/injection, schedule: Q01DX005 (ip), vehicle: saline

`Cc1ccc(S(=O)(=O)NC(=S)c2ccccc2C(=S)NS(=O)(=O)c2ccc(C)cc2)cc1` was tested, and the T/C [1] was 103 % of control, the T/C [2] was 110 % of control and the T/C [3] was 104 % of control.
For `CC(OC(=O)Nc1cccc2ccccc12)C(N)=O` (configuration not stated), the T/C [4] was 91 % of control, the T/C [5] was 95 % of control and the T/C [6] was 96 % of control.
`O=C(Nc1ccc(-c2cn3ccccc3n2)cc1)c1ccccc1O` was tested, and the T/C [7] was 88 % of control, the T/C [8] was 87 % of control and the T/C [9] was 101 % of control.
For `COC(=O)c1cc(O)c2c(c1C(=O)OC)C[C@H]1[C@@H]3CC=C4C[C@@H](O)CC[C@]4(C)[C@H]3CC[C@]21C`, the T/C [10] was 97 % of control, the T/C [11] was 87 % of control and the T/C [12] was 87 % of control.
In the case of `Cc1c(Cc2ccccc2)[n+](=O)c2ccccc2n1[O-]`, the T/C [13] is reported as 92 % of control, the T/C [14] is reported as 95 % of control and the T/C [4] is reported as 100 % of control. The T/C (dose: 100.0 mg/kg/injection, schedule: Q04DX003 (ip), vehicle: saline with Tween-80) was 101 % of control, the T/C [15] was 99 % of control and the T/C [5] was 98 % of control. For the same compound, the T/C (dose: 200.0 mg/kg/injection, schedule: Q04DX003 (ip), vehicle: saline with Tween-80) was 110 % of control, the T/C (dose: 400.0 mg/kg/injection, schedule: Q01DX005 (ip), vehicle: Klucel (hydroxypropylcellulose) (HPC)) was 94 % of control and the T/C [6] was 104 % of control. For the same compound, the T/C (dose: 400.0 mg/kg/injection, schedule: Q04DX003 (ip), vehicle: saline with Tween-80) was 118 % of control.
With `CC(=O)c1ccc(NN=NCCCl)cc1` the T/C (dose: 12.5 mg/kg/injection, schedule: Q01DX009 (ip), vehicle: distilled water + Tween-80) was 98 % of control, the T/C (dose: 25.0 mg/kg/injection, schedule: Q01DX009 (ip), vehicle: distilled water + Tween-80) was 100 % of control and the T/C (dose: 50.0 mg/kg/injection, schedule: Q01DX009 (ip), vehicle: distilled water + Tween-80) was 104 % of control. The T/C (dose: 100.0 mg/kg/injection, schedule: Q01DX009 (ip), vehicle: distilled water + Tween-80) was 104 % of control and the T/C (dose: 200.0 mg/kg/injection, schedule: Q01DX009 (ip), vehicle: distilled water + Tween-80) was 107 % of control.
In the case of `NC(N)=O.NC(N)=O.NC(N)=O.NC(N)=O.NC(N)=O.NC(N)=O.[Fe+3].[O-][Cl+3]([O-])([O-])O`, the T/C [7] is reported as 96 % of control, the T/C [8] is reported as 91 % of control and the T/C [9] is reported as 102 % of control.
For `CCN(CC)C(=O)N1CCN(C(=O)c2cc(Nc3ccnc4cc(Cl)ccc34)ccc2O)CC1`, the T/C (dose: 100.0 mg/kg/injection, schedule: Q04DX002 (ip), vehicle: saline with Tween-80) was 100 % of control, the T/C (dose: 200.0 mg/kg/injection, schedule: Q04DX002 (ip), vehicle: saline with Tween-80) was 100 % of control and the T/C (dose: 400.0 mg/kg/injection, schedule: Q04DX002 (ip), vehicle: saline with Tween-80) was 89 % of control.
For `Oc1ccc(C2N=CNc3nc[nH]c32)c(O)c1` (configuration not stated), the T/C [16] was 105 % of control, the T/C [17] was 102 % of control and the T/C [18] was 100 % of control.
For `CCCCP(=O)(CCCC)CCCC.CCCCP(=O)(CCCC)CCCC.CCCCP(=O)(CCCC)CCCC.CCCCP(=O)(CCCC)CCCC.[Ce+3].[O-][Cl+3]([O-])([O-])O`, the T/C [7] was 97 % of control, the T/C [8] was 92 % of control and the T/C [9] was 86 % of control.
In the case of `COC(=O)C12OCC34C(CC5C(C)C6=CC(=O)OC6=CC5(C)C3C(O)C1O)OC(=O)C(OC(C)=O)C24` (configuration not stated), the T/C (dose: 18.37 mg/kg/injection, schedule: Q01DX005 (ip), vehicle: Klucel (hydroxypropylcellulose) (HPC)) is reported as 106 % of control and the T/C (dose: 36.75 mg/kg/injection, schedule: Q01DX005 (ip), vehicle: Klucel (hydroxypropylcellulose) (HPC)) is reported as 115 % of control.
In the case of `Cc1ccc(SSc2ccc(C(C)(C)C)cc2)cc1`, the T/C [13] is reported as 97 % of control, the T/C [14] is reported as 102 % of control and the T/C [15] is reported as 99 % of control.
With `COCCC1OCC(CCl)O1` (configuration not stated) the T/C [10] was 104 % of control, the T/C [11] was 99 % of control and the T/C [12] was 108 % of control.
`NC(Cc1cnc[nH]1)C(=O)O` (configuration not stated) was tested, and the T/C [16] was 110 % of control, the T/C [17] was 107 % of control and the T/C [18] was 110 % of control.
With `CC1=NN(c2ccccc2)[As]2ON=C(c3ccc(Cl)cc3)C12` (configuration not stated) the T/C [13] was 102 % of control, the T/C [14] was 103 % of control and the T/C [15] was 108 % of control.
`CC(=O)OC1(C)CC2(CCCCC2)N=N1` (configuration not stated) was tested, and the T/C (dose: 12.5 mg/kg/injection, schedule: Q01DX009 (ip), vehicle: other) was 100 % of control, the T/C (dose: 25.0 mg/kg/injection, schedule: Q01DX009 (ip), vehicle: other) was 113 % of control and the T/C (dose: 50.0 mg/kg/injection, schedule: Q01DX009 (ip), vehicle: other) was 98 % of control. For the same compound, the T/C (dose: 100.0 mg/kg/injection, schedule: Q01DX009 (ip), vehicle: other) was 111 % of control and 91 % of control, the T/C (dose: 200.0 mg/kg/injection, schedule: Q01DX009 (ip), vehicle: other) was 107 % of control and the T/C (dose: 400.0 mg/kg/injection, schedule: Q01DX009 (ip), vehicle: other) was 113 % of control.
`O=C1c2ccccc2C(=O)c2c(NC(=O)c3ccc4c5c(ncnc35)-c3ccccc3C4=O)cccc21` was tested, and the T/C [19] was 95 % of control, the T/C [20] was 100 % of control and the T/C [21] was 94 % of control.
In the case of `NC(Cc1ccc2ccccc2c1Br)C(=O)O` (configuration not stated), the T/C [19] is reported as 99 % of control, the T/C [20] is reported as 99 % of control and the T/C [21] is reported as 97 % of control.
For `O=C1NC2(CCCCC2)C(=O)N1CCCN(CCCl)CCCl`, the T/C (dose: 1.5 mg/kg/injection, schedule: Q01DX005 (ip), vehicle: saline) was 121 % of control, the T/C (dose: 6.0 mg/kg/injection, schedule: Q01DX005 (ip), vehicle: saline) was 153 % of control and 156 % of control and the T/C (dose: 12.0 mg/kg/injection, schedule: Q01DX005 (ip), vehicle: saline) was 178 % of control and 200 % of control and 208 % of control. For the same compound, the T/C (dose: 24.0 mg/kg/injection, schedule: Q01DX005 (ip), vehicle: saline) was 162 % of control and 210 % of control.
With `COC(=O)/C=C(\O)C(Cc1cc(OC)c2c(c1O)C(=O)c1c(OC)cccc1C2=O)C(=O)OC` (configuration not stated) the T/C [1] was 101 % of control, the T/C [2] was 102 % of control and the T/C [3] was 97 % of control.
With `[Cl][Pt+2][Cl].[NH-]c1cccc(C(F)(F)F)c1.[NH-]c1cccc(C(F)(F)F)c1` the T/C (dose: 3.12 mg/kg/injection, schedule: Q01DX009 (ip), vehicle: Klucel (hydroxypropylcellulose) (HPC)) was 103 % of control and 111 % of control, the T/C (dose: 6.25 mg/kg/injection, schedule: Q01DX009 (ip), vehicle: Klucel (hydroxypropylcellulose) (HPC)) was 97 % of control and the T/C (dose: 12.5 mg/kg/injection, schedule: Q01DX009 (ip), vehicle: Klucel (hydroxypropylcellulose) (HPC)) was 111 % of control. The T/C (dose: 25.0 mg/kg/injection, schedule: Q01DX009 (ip), vehicle: Klucel (hydroxypropylcellulose) (HPC)) was 106 % of control.
`NC(=O)C1CC(O)CN1C(=O)c1cccnc1` (configuration not stated) was tested, and the T/C [22] was 101 % of control, the T/C [23] was 100 % of control and the T/C [24] was 93 % of control.
For `CSc1nc(N)c(C(=O)NC2CCCCC2)s1`, the T/C [19] was 100 % of control, the T/C [20] was 100 % of control and the T/C [21] was 99 % of control.
In the case of `Cc1cc(C=C2C(=O)NC(=O)NC2=O)cc(C)c1O`, the T/C (dose: 12.5 mg/kg/injection, schedule: Q01DX005 (ip), vehicle: saline with Tween-80) is reported as 108 % of control, the T/C (dose: 25.0 mg/kg/injection, schedule: Q01DX005 (ip), vehicle: saline with Tween-80) is reported as 103 % of control and the T/C [10] is reported as 105 % of control and 119 % of control. For the same compound, the T/C [11] was 117 % of control.
`COCCCCCC(=O)OC` was tested, and the T/C [22] was 101 % of control, the T/C [23] was 100 % of control and the T/C [24] was 104 % of control.
For `CC(C)C1N=C(c2ccccc2)OC1=O` (configuration not stated), the T/C (dose: 60.0 mg/kg/injection, schedule: Q01DX005 (ip), vehicle: Klucel (hydroxypropylcellulose) (HPC)) was 92 % of control, the T/C (dose: 120.0 mg/kg/injection, schedule: Q01DX005 (ip), vehicle: Klucel (hydroxypropylcellulose) (HPC)) was 92 % of control and the T/C (dose: 240.0 mg/kg/injection, schedule: Q01DX005 (ip), vehicle: Klucel (hydroxypropylcellulose) (HPC)) was 100 % of control.
